# Measured values as given in patent US8883841B2, “Oncogenic ras-specific cytotoxic compound and methods of use thereof” (The Board of Regents of the University of Texas System, priority 2005, dated 2014).
# pIC50: −log10 of the molar value. Like-named read-outs stand apart in the source and are kept apart here.
# Tests used:
# RXF 393 = test: NCI in-vitro testing, RXF 393 (Renal Cancer)
# Hey = test: Cell viability, Hey ovary cancer cells; format: cell-based
# HL-60(TB) = test: NCI in-vitro testing, HL-60(TB) (Leukemia)
# EKVX = test: NCI in-vitro testing, EKVX (Non-Small Cell Lung Cancer)
# [1] = test system: panel of 60 cancer cell lines; test: NCI Developmental Therapeutics Program in-vitro testing, panel of 60 cancer cell lines (whole panel); format: cell-based
# Ovcar443 = test: Cell viability, Ovcar443 ovary cancer cells; format: cell-based
# SKOV3 = test: Cell viability, SKOV3 ovary cancer cells; format: cell-based; conditions: Homo sapiens, SK-OV-3
# BT-549 = test: NCI in-vitro testing, BT-549 (Breast Cancer)
# UACC-62 = test: NCI in-vitro testing, UACC-62 (Melanoma)
# ACHN = test: NCI in-vitro testing, ACHN (Renal Cancer)
# SW-620 = test: NCI in-vitro testing, SW-620 (Colon Cancer)
# A498 = test: NCI in-vitro testing, A498 (Renal Cancer)
# UO-31 = test: NCI in-vitro testing, UO-31 (Renal Cancer)
# SF-268 = test: NCI in-vitro testing, SF-268 (CNS Cancer)
# DU-145 = test: NCI in-vitro testing, DU-145 (Prostate Cancer)
# KM12 = test: NCI in-vitro testing, KM12 (Colon Cancer)
# [2] = Homo sapiens, read-out: Log10 GI50 (converted)
compound,measurement,setting,value
"OCc1cn(Cc2ccc(Cl)cc2)c2ccccc12 [Oncrasin K060, 1H-Indole-3-methanol, 1-[(4-chlorophenyl)methyl]-]",GI50,"RXF 393; Homo sapiens, RXF 393",< 0.01 µM
same,CC50,"RXF 393; Homo sapiens, RXF 393, read-out: LC50",23.2 µM
same,GI50,"RXF 393; Homo sapiens, RXF 393, read-out: Log10 GI50 (converted)",< 0.01 µM
same,TGI,RXF 393; RXF 393,2.44E−7 Molar
same,Percent Growth,"RXF 393; RXF 393, Log10 Concentration −4.0 Molar",−85%
same,Percent Growth,"RXF 393; RXF 393, Log10 Concentration −5.0 Molar",−30%
same,Percent Growth,"RXF 393; RXF 393, Log10 Concentration −6.0 Molar",−12%
same,Percent Growth,"RXF 393; RXF 393, Log10 Concentration −7.0 Molar",7%
same,Percent Growth,"RXF 393; RXF 393, Log10 Concentration −8.0 Molar",31%
same,pIC50,Hey,5.00
same,TGI,HL-60(TB); HL-60(TB),1.28E−5 Molar
same,Percent Growth,"HL-60(TB); HL-60(TB), Log10 Concentration −4.0 Molar",−78%
same,Percent Growth,"HL-60(TB); HL-60(TB), Log10 Concentration −5.0 Molar",9%
same,Percent Growth,"HL-60(TB); HL-60(TB), Log10 Concentration −6.0 Molar",89%
same,Percent Growth,"HL-60(TB); HL-60(TB), Log10 Concentration −7.0 Molar",85%
same,Percent Growth,"HL-60(TB); HL-60(TB), Log10 Concentration −8.0 Molar",95%
same,GI50,"HL-60(TB); Homo sapiens, HL-60",2.1 µM
same,CC50,"HL-60(TB); Homo sapiens, HL-60, read-out: LC50",4.31 µM
same,GI50,"HL-60(TB); Homo sapiens, HL-60, read-out: Log10 GI50 (converted)",2.09 µM
same,TGI,EKVX,6.47E−5 Molar
same,GI50,EKVX; Homo sapiens,24 µM
same,CC50,"EKVX; Homo sapiens, read-out: LC50",> 100 µM
same,GI50,EKVX; [2],24 µM
same,Percent Growth,EKVX; Log10 Concentration −4.0 Molar,−22%
same,Percent Growth,EKVX; Log10 Concentration −5.0 Molar,94%
same,Percent Growth,EKVX; Log10 Concentration −6.0 Molar,107%
same,Percent Growth,EKVX; Log10 Concentration −7.0 Molar,105%
same,Percent Growth,EKVX; Log10 Concentration −8.0 Molar,103%
same,anticancer spectrum in NCI panel,"[1]; leukemia, non small lung, colon, melanoma, ovarian, renal, breast",active in a number of cancer cell lines
same,GI50,"[1]; of 54 cancer cell lines tested, read-out: medium 50% growth inhibition (GI50) concentration",1.12 µM
same,pIC50,Ovcar443,5.60
same,pIC50,SKOV3,6.20
same,TGI,BT-549; BT-549,1.73E−5 Molar
same,Percent Growth,"BT-549; BT-549, Log10 Concentration −4.0 Molar",−85%
same,Percent Growth,"BT-549; BT-549, Log10 Concentration −5.0 Molar",26%
same,Percent Growth,"BT-549; BT-549, Log10 Concentration −6.0 Molar",97%
same,Percent Growth,"BT-549; BT-549, Log10 Concentration −7.0 Molar",118%
same,Percent Growth,"BT-549; BT-549, Log10 Concentration −8.0 Molar",110%
same,GI50,"BT-549; Homo sapiens, BT-549",4.62 µM
same,CC50,"BT-549; Homo sapiens, BT-549, read-out: LC50",4.88 µM
same,GI50,"BT-549; Homo sapiens, BT-549, read-out: Log10 GI50 (converted)",4.57 µM
same,GI50,"UACC-62; Homo sapiens, UACC-62",0.0451 µM
same,CC50,"UACC-62; Homo sapiens, UACC-62, read-out: LC50",11.4 µM
same,GI50,"UACC-62; Homo sapiens, UACC-62, read-out: Log10 GI50 (converted)",0.0447 µM
same,TGI,UACC-62; UACC-62,8.97E−7 Molar
same,Percent Growth,"UACC-62; UACC-62, Log10 Concentration −4.0 Molar",−94%
same,Percent Growth,"UACC-62; UACC-62, Log10 Concentration −5.0 Molar",−47%
same,Percent Growth,"UACC-62; UACC-62, Log10 Concentration −6.0 Molar",−2%
same,Percent Growth,"UACC-62; UACC-62, Log10 Concentration −7.0 Molar",35%
same,Percent Growth,"UACC-62; UACC-62, Log10 Concentration −8.0 Molar",79%
same,TGI,ACHN,2.25E−5 Molar
same,GI50,ACHN; Homo sapiens,2 µM
same,CC50,"ACHN; Homo sapiens, read-out: LC50",> 100 µM
same,GI50,ACHN; [2],2.63 µM
same,Percent Growth,ACHN; Log10 Concentration −4.0 Molar,−30%
same,Percent Growth,ACHN; Log10 Concentration −5.0 Molar,10%
same,Percent Growth,ACHN; Log10 Concentration −6.0 Molar,75%
same,Percent Growth,ACHN; Log10 Concentration −7.0 Molar,92%
same,Percent Growth,ACHN; Log10 Concentration −8.0 Molar,99%
same,GI50,"SW-620; Homo sapiens, SW-620",0.571 µM
same,CC50,"SW-620; Homo sapiens, SW-620, read-out: LC50",> 100 µM
same,GI50,"SW-620; Homo sapiens, SW-620, read-out: Log10 GI50 (converted)",0.575 µM
same,TGI,SW-620; SW-620,1.80E−5 Molar
same,Percent Growth,"SW-620; SW-620, Log10 Concentration −4.0 Molar",−46%
same,Percent Growth,"SW-620; SW-620, Log10 Concentration −5.0 Molar",16%
same,Percent Growth,"SW-620; SW-620, Log10 Concentration −6.0 Molar",39%
same,Percent Growth,"SW-620; SW-620, Log10 Concentration −7.0 Molar",83%
same,Percent Growth,"SW-620; SW-620, Log10 Concentration −8.0 Molar",94%
same,TGI,A498; A498,3.33E−8 Molar
same,Percent Growth,"A498; A498, Log10 Concentration −4.0 Molar",−94%
same,Percent Growth,"A498; A498, Log10 Concentration −5.0 Molar",−95%
same,Percent Growth,"A498; A498, Log10 Concentration −6.0 Molar",−87%
same,Percent Growth,"A498; A498, Log10 Concentration −7.0 Molar",−56%
same,Percent Growth,"A498; A498, Log10 Concentration −8.0 Molar",61%
same,GI50,"A498; Homo sapiens, A498",0.0124 µM
same,CC50,"A498; Homo sapiens, A498, read-out: LC50",0.089 µM
same,GI50,"A498; Homo sapiens, A498, read-out: Log10 GI50 (converted)",0.0123 µM
same,GI50,"UO-31; Homo sapiens, UO-31",1.58 µM
same,CC50,"UO-31; Homo sapiens, UO-31, read-out: LC50",> 100 µM
same,GI50,"UO-31; Homo sapiens, UO-31, read-out: Log10 GI50 (converted)",1.58 µM
same,TGI,UO-31; UO-31,1.55E−5 Molar
same,Percent Growth,"UO-31; UO-31, Log10 Concentration −4.0 Molar",−42%
same,Percent Growth,"UO-31; UO-31, Log10 Concentration −5.0 Molar",10%
same,Percent Growth,"UO-31; UO-31, Log10 Concentration −6.0 Molar",60%
same,Percent Growth,"UO-31; UO-31, Log10 Concentration −7.0 Molar",80%
same,Percent Growth,"UO-31; UO-31, Log10 Concentration −8.0 Molar",90%
same,GI50,"SF-268; Homo sapiens, SF-268",12.4 µM
same,CC50,"SF-268; Homo sapiens, SF-268, read-out: LC50",> 100 µM
same,GI50,"SF-268; Homo sapiens, SF-268, read-out: Log10 GI50 (converted)",12.3 µM
same,TGI,SF-268; SF-268,4.58E−5 Molar
same,Percent Growth,"SF-268; SF-268, Log10 Concentration −4.0 Molar",−30%
same,Percent Growth,"SF-268; SF-268, Log10 Concentration −5.0 Molar",56%
same,Percent Growth,"SF-268; SF-268, Log10 Concentration −6.0 Molar",94%
same,Percent Growth,"SF-268; SF-268, Log10 Concentration −7.0 Molar",98%
same,Percent Growth,"SF-268; SF-268, Log10 Concentration −8.0 Molar",106%
same,TGI,DU-145; DU-145,2.78E−5 Molar
same,Percent Growth,"DU-145; DU-145, Log10 Concentration −4.0 Molar",−53%
same,Percent Growth,"DU-145; DU-145, Log10 Concentration −5.0 Molar",42%
same,Percent Growth,"DU-145; DU-145, Log10 Concentration −6.0 Molar",96%
same,Percent Growth,"DU-145; DU-145, Log10 Concentration −7.0 Molar",105%
same,Percent Growth,"DU-145; DU-145, Log10 Concentration −8.0 Molar",108%
same,GI50,"DU-145; Homo sapiens, DU-145",7.25 µM
same,CC50,"DU-145; Homo sapiens, DU-145, read-out: LC50",93.3 µM
same,GI50,"DU-145; Homo sapiens, DU-145, read-out: Log10 GI50 (converted)",7.24 µM
same,GI50,"KM12; Homo sapiens, KM12",18.3 µM
same,CC50,"KM12; Homo sapiens, KM12, read-out: LC50",9.44 µM
same,GI50,"KM12; Homo sapiens, KM12, read-out: Log10 GI50 (converted)",18.2 µM
same,TGI,KM12; KM12,1.15E−6 Molar
same,Percent Growth,"KM12; KM12, Log10 Concentration −4.0 Molar",−64%
same,Percent Growth,"KM12; KM12, Log10 Concentration −5.0 Molar",87%
same,Percent Growth,"KM12; KM12, Log10 Concentration −6.0 Molar",102%
same,Percent Growth,"KM12; KM12, Log10 Concentration −7.0 Molar",113%
same,Percent Growth,"KM12; KM12, Log10 Concentration −8.0 Molar",108%
